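Dose response: 5 concentrations. Exposure: 48 h. Format: 96-well plates. Endpoint: linear interpolation; highest concentration if not reached. TGI: total growth inhibition.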
Columns and labels:
Test in all cases: DTP human tumour cell line panel, 48 h
786-0 renal = system: 786-0 renal
A498 renal = system: A498 renal
A549 NSCLC = system: A549 NSCLC
ACHN renal = system: ACHN renal
BT-549 breast = system: BT-549 breast
CAKI-1 renal = system: CAKI-1 renal
CCRF-CEM leukemia = system: CCRF-CEM leukemia
COLO 205 colon = system: COLO 205 colon
DU-145 prostate = system: DU-145 prostate
EKVX NSCLC = system: EKVX NSCLC
HCC-2998 colon = system: HCC-2998 colon
HCT-116 colon = system: HCT-116 colon
HCT-15 colon = system: HCT-15 colon
HL-60(TB) leukemia = system: HL-60(TB) leukemia
HOP-62 NSCLC = system: HOP-62 NSCLC
HOP-92 NSCLC = system: HOP-92 NSCLC
HS 578T breast = system: HS 578T breast
HT29 colon = system: HT29 colon
IGROV1 ovarian = system: IGROV1 ovarian
K-562 leukemia = system: K-562 leukemia
KM12 colon = system: KM12 colon
LOX IMVI melanoma = system: LOX IMVI melanoma
M14 melanoma = system: M14 melanoma
MALME-3M melanoma = system: MALME-3M melanoma
MCF7 breast = system: MCF7 breast
MDA-MB-231 breast = system: MDA-MB-231 breast
MDA-MB-435 = system: MDA-MB-435
MDA-N = system: MDA-N
MOLT-4 leukemia = system: MOLT-4 leukemia
NCI-H226 lung = system: NCI-H226 lung
NCI-H23 lung = system: NCI-H23 lung
NCI-H460 lung = system: NCI-H460 lung
NCI-H522 lung = system: NCI-H522 lung
NCI/ADR-RES ovarian = system: NCI/ADR-RES ovarian
OVCAR-3 ovarian = system: OVCAR-3 ovarian
OVCAR-4 ovarian = system: OVCAR-4 ovarian
OVCAR-5 ovarian = system: OVCAR-5 ovarian
OVCAR-8 ovarian = system: OVCAR-8 ovarian
PC-3 prostate = system: PC-3 prostate
RPMI-8226 leukemia = system: RPMI-8226 leukemia
RXF 393 renal = system: RXF 393 renal
SF-268 CNS = system: SF-268 CNS
SF-295 CNS = system: SF-295 CNS
SF-539 CNS = system: SF-539 CNS
SK-MEL-2 melanoma = system: SK-MEL-2 melanoma
SK-MEL-28 melanoma = system: SK-MEL-28 melanoma
SK-MEL-5 melanoma = system: SK-MEL-5 melanoma
SK-OV-3 ovarian = system: SK-OV-3 ovarian
SN12C renal = system: SN12C renal
SNB-19 CNS = system: SNB-19 CNS
SNB-75 CNS = system: SNB-75 CNS
SR leukemia = system: SR leukemia
SW-620 colon = system: SW-620 colon
T-47D breast = system: T-47D breast
TK-10 renal = system: TK-10 renal
U251 CNS = system: U251 CNS
UACC-257 melanoma = system: UACC-257 melanoma
UACC-62 melanoma = system: UACC-62 melanoma
UO-31 renal = system: UO-31 renal

With `Cn1c(=O)c2c(nc3sc4c(n32)C(=O)c2c(O)ccc(O)c2C4=O)n(C)c1=O` the TGI (786-0 renal) was 4.37 µM, the TGI (A498 renal) was 57.4 µM and the TGI (A549 NSCLC) was 59.6 µM. For the same compound, the TGI (ACHN renal) was 8.33 µM, the TGI (BT-549 breast) was 17.7 µM and the TGI (CAKI-1 renal) was 18.6 µM. For the same compound, the TGI (CCRF-CEM leukemia) was 1.9 µM, the TGI (COLO 205 colon) was 12.1 µM and the TGI (DU-145 prostate) was 26.7 µM. It also gave a TGI (EKVX NSCLC) of 33.8 µM, a TGI (HCC-2998 colon) of 17.5 µM and a TGI (HCT-116 colon) of 4.68 µM. For the same compound, the TGI (HCT-15 colon) was 4.72 µM, the TGI (HL-60(TB) leukemia) was 2.83 µM and the TGI (HOP-62 NSCLC) was 30 µM. It also gave a TGI (HOP-92 NSCLC) of 7.93 µM, a TGI (HS 578T breast) of 64.1 µM and a TGI (HT29 colon) of 4.34 µM. The TGI (IGROV1 ovarian) was 25.4 µM, the TGI (K-562 leukemia) was 2.44 µM and the TGI (KM12 colon) was 11.6 µM. For the same compound, the TGI (LOX IMVI melanoma) was 2.75 µM, the TGI (M14 melanoma) was 6.48 µM and the TGI (MALME-3M melanoma) was 3.09 µM. For the same compound, the TGI (MCF7 breast) was 3.41 µM, the TGI (MDA-MB-231 breast) was 5.26 µM and the TGI (MDA-MB-435) was 15.5 µM. It also gave a TGI (MDA-N) of 4.1 µM, a TGI (MOLT-4 leukemia) of 5.08 µM and a TGI (NCI-H226 lung) greater than 100 µM. It also gave a TGI (NCI-H23 lung) of 21.2 µM, a TGI (NCI-H460 lung) greater than 59.4 µM and a TGI (NCI-H522 lung) of 0.369 µM. It also gave a TGI (NCI/ADR-RES ovarian) of 17.1 µM, a TGI (OVCAR-3 ovarian) greater than 20.9 µM and a TGI (OVCAR-4 ovarian) of 2.92 µM. The TGI (OVCAR-5 ovarian) was 48.6 µM, the TGI (OVCAR-8 ovarian) was 11 µM and the TGI (PC-3 prostate) was 26.7 µM. For the same compound, the TGI (RPMI-8226 leukemia) was 2.04 µM, the TGI (RXF 393 renal) was 5.59 µM and the TGI (SF-268 CNS) was 24.5 µM. The TGI (SF-295 CNS) was greater than 100 µM, the TGI (SF-539 CNS) was 15.6 µM and the TGI (SK-MEL-2 melanoma) was 17.5 µM. For the same compound, the TGI (SK-MEL-28 melanoma) was 21.3 µM, the TGI (SK-MEL-5 melanoma) was 8.35 µM and the TGI (SK-OV-3 ovarian) was greater than 100 µM. It also gave a TGI (SN12C renal) of 3.93 µM, a TGI (SNB-19 CNS) greater than 91.5 µM and a TGI (SNB-75 CNS) of 16.1 µM. The TGI (SR leukemia) was 3.23 µM, the TGI (SW-620 colon) was 1.78 µM and the TGI (T-47D breast) was 7.6 µM. For the same compound, the TGI (TK-10 renal) was 15.2 µM, the TGI (U251 CNS) was greater than 48.7 µM and the TGI (UACC-257 melanoma) was 28.5 µM. For the same compound, the TGI (UACC-62 melanoma) was 8.5 µM and the TGI (UO-31 renal) was 11.6 µM.

With `COc1cc2cc(C(=O)Nc3cc4n(n3)-c3ccccc3C4)[nH]c2c(OC)c1OC` the TGI (786-0 renal) was 17.8 µM, the TGI (A498 renal) was 50 µM and the TGI (A549 NSCLC) was 7.63 µM. The TGI (ACHN renal) was 17.6 µM, the TGI (BT-549 breast) was 3.57 µM and the TGI (CAKI-1 renal) was 6.3 µM. The TGI (CCRF-CEM leukemia) was 3.42 µM, the TGI (COLO 205 colon) was 9.45 µM and the TGI (DU-145 prostate) was 14.3 µM. It also gave a TGI (EKVX NSCLC) of 11.5 µM, a TGI (HCC-2998 colon) of 21 µM and a TGI (HCT-116 colon) of 9.65 µM. For the same compound, the TGI (HCT-15 colon) was 9.61 µM, the TGI (HL-60(TB) leukemia) was 6.1 µM and the TGI (HOP-62 NSCLC) was 6.43 µM. It also gave a TGI (HOP-92 NSCLC) of 16.6 µM, a TGI (HS 578T breast) of 16.4 µM and a TGI (HT29 colon) of 25.5 µM. It also gave a TGI (IGROV1 ovarian) of 9.79 µM, a TGI (K-562 leukemia) of 14.9 µM and a TGI (KM12 colon) of 7.83 µM. It also gave a TGI (LOX IMVI melanoma) of 12.7 µM, a TGI (M14 melanoma) of 6.86 µM and a TGI (MALME-3M melanoma) of 6.43 µM. It also gave a TGI (MCF7 breast) of 14.1 µM, a TGI (MDA-MB-231 breast) of 19.3 µM and a TGI (MDA-MB-435) of 5.28 µM. For the same compound, the TGI (MDA-N) was 8.52 µM, the TGI (MOLT-4 leukemia) was 2.2 µM and the TGI (NCI-H226 lung) was 3.95 µM. For the same compound, the TGI (NCI-H23 lung) was 10.5 µM, the TGI (NCI-H460 lung) was 7.1 µM and the TGI (NCI-H522 lung) was 4.13 µM. The TGI (NCI/ADR-RES ovarian) was 3.86 µM, the TGI (OVCAR-3 ovarian) was 11.8 µM and the TGI (OVCAR-4 ovarian) was 6.16 µM. The TGI (OVCAR-5 ovarian) was 17.8 µM, the TGI (OVCAR-8 ovarian) was 3.78 µM and the TGI (PC-3 prostate) was 10.4 µM. For the same compound, the TGI (RPMI-8226 leukemia) was 3.14 µM, the TGI (RXF 393 renal) was 50 µM and the TGI (SF-268 CNS) was 15.1 µM. For the same compound, the TGI (SF-295 CNS) was 11.6 µM, the TGI (SF-539 CNS) was 17.8 µM and the TGI (SK-MEL-2 melanoma) was 8.39 µM. It also gave a TGI (SK-MEL-28 melanoma) of 9.66 µM, a TGI (SK-MEL-5 melanoma) of 5.23 µM and a TGI (SK-OV-3 ovarian) of 19.4 µM. The TGI (SN12C renal) was 25.6 µM, the TGI (SNB-19 CNS) was 27.6 µM and the TGI (SNB-75 CNS) was 13.9 µM. The TGI (SR leukemia) was 11.5 µM, the TGI (SW-620 colon) was 19.1 µM and the TGI (T-47D breast) was 2.39 µM. For the same compound, the TGI (TK-10 renal) was 9.27 µM, the TGI (U251 CNS) was 22.7 µM and the TGI (UACC-257 melanoma) was 9.26 µM. It also gave a TGI (UO-31 renal) of 6.8 µM.

Reference: PubChem BioAssay (NCI)
